A short description of data set [1]: % of radioactivity recovered as M9 from M2 in faeces following intravenous administration of [14C] aliskiren hemifumarate at 10 mg.Kg-1 level in rat. In kind it is ADME, organism-based, Albino HAN:WIST, Feces. The conditions noted are these: in vivo.
Data set [2] can be described thus: % aliskiren recovered as metabolite M9 in plasma following 10 day repeated oral administration of [14C] aliskiren hemifumarate at 100 mg.Kg-1 level studied in rat. It counts as ADME, organism-based, Albino HAN:WIST. The note with it: in vivo, 240 h.
A short description of data set [3]: % aliskiren hemifumarate recovered as M9 in urine following single oral dose of 300 mg [14C]SPP100 studied in healthy men. It counts as ADME, organism-based. The conditions noted are these: human, in vivo.
The nature of data set [4]: % of radioactivity recovered as M9 from M2 in faeces following oral administration of [14C] aliskiren hemifumarate at 100 mg.Kg-1 level in rat. In kind it is ADME, organism-based, Albino HAN:WIST, Feces. The note with it: in vivo.
Data set [5] in a line: % of radioactivity recovered as M9 from M2 in urine following intravenous administration of [14C] aliskiren hemifumarate at 10 mg.Kg-1 level in rat. It counts as ADME, organism-based, Albino HAN:WIST. The note with it: in vivo.
Data set [6] can be described thus: % of radioactivity recovered as M9 from M2 in plasma following oral administration of [14C] aliskiren hemifumarate at 100 mg.Kg-1 level in rat. It counts as ADME, organism-based, Albino HAN:WIST. The note with it: in vivo.
Data set [7] in a line: % of radioactivity recovered as M9 from M2 in urine following oral administration of [14C] aliskiren hemifumarate at 100 mg.Kg-1 level in rat. In kind it is ADME, organism-based, Albino HAN:WIST. The note with it: in vivo.
Data set [8] is described as follows: % of radioactivity recovered as M9 from M2 in plasma following intravenous administration of [14C] aliskiren hemifumarate at 10 mg.Kg-1 level in rat. In kind it is ADME, organism-based, Albino HAN:WIST. The conditions noted are these: in vivo.
The nature of data set [9]: % aliskiren hemifumarate recovered as M9 in urine and faeces following single oral dose of 300 mg [14C]SPP100 studied in healthy men. The conditions noted are these: human, in vivo. It counts as ADME, organism-based, Urine/Feces.
Data set [10] in a line: % aliskiren recovered as metabolite M9 in urine following 10 day repeated oral administration of [14C] aliskiren hemifumarate at 100 mg.Kg-1 level studied in rat. The note with it: in vivo, 240 h. In kind it is ADME, organism-based, Albino HAN:WIST.
A short description of data set [11]: % aliskiren hemifumarate recovered as M9 in faeces following single oral dose of 300 mg [14C]SPP100 studied in healthy men. It counts as ADME, organism-based, Feces. The note with it: human, in vivo.
A short description of data set [12]: % aliskiren recovered as metabolite M9 in faeces following 10 day repeated oral administration of [14C] aliskiren hemifumarate at 100 mg.Kg-1 level studied in rat. It counts as ADME, organism-based, Albino HAN:WIST, Feces. The note with it: in vivo, 240 h.
A short description of data set [13]: % of radioactivity recovered as M12 in plasma following intravenous administration of [14C] aliskiren hemifumarate at 10 mg.Kg-1 level in rat. It counts as ADME, organism-based, Albino HAN:WIST. The conditions noted are these: in vivo.
A short description of data set [14]: % of radioactivity recovered as M12 in urine following intravenous administration of [14C] aliskiren hemifumarate at 10 mg.Kg-1 level in rat. It counts as ADME, organism-based, Albino HAN:WIST. The note with it: in vivo.
Data set [15] in a line: % aliskiren hemifumarate recovered as M12 in urine and faeces following single oral dose of 300 mg [14C]SPP100 studied in healthy men. In kind it is ADME, organism-based, Urine/Feces. The note with it: human, in vivo, at 300 mg.
Data set [16] in a line: % of radioactivity recovered as M12 in faeces following intravenous administration of [14C] aliskiren hemifumarate at 10 mg.Kg-1 level in rat. The note with it: in vivo. It counts as ADME, organism-based, Albino HAN:WIST, Feces.
Data set [17] is described as follows: % aliskiren hemifumarate recovered as M12 in urine following single oral dose of 300 mg [14C]SPP100 studied in healthy men. In kind it is ADME, organism-based. The note with it: human, in vivo.
Data set [18] can be described thus: % aliskiren recovered as metabolite M12 in plasma following 10 day repeated oral administration of [14C] aliskiren hemifumarate at 100 mg.Kg-1 level studied in rat. It counts as ADME, organism-based, Albino HAN:WIST. The conditions noted are these: in vivo, 240 h.
The nature of data set [19]: % of radioactivity recovered as M12 in plasma following oral administration of [14C] aliskiren hemifumarate at 100 mg.Kg-1 level in rat. In kind it is ADME, organism-based, Albino HAN:WIST. The conditions noted are these: in vivo.
Data set [20] can be described thus: % of radioactivity recovered as M12 in urine following oral administration of [14C] aliskiren hemifumarate at 100 mg.Kg-1 level in rat. It counts as ADME, organism-based, Albino HAN:WIST. The conditions noted are these: in vivo.
Data set [21] can be described thus: % aliskiren recovered as metabolite M12 in urine following 10 day repeated oral administration of [14C] aliskiren hemifumarate at 100 mg.Kg-1 level studied in rat. It counts as ADME, organism-based, Albino HAN:WIST. The note with it: in vivo, 240 h.
A short description of data set [22]: % aliskiren recovered as metabolite M12 in faeces following 10 day repeated oral administration of [14C] aliskiren hemifumarate at 100 mg.Kg-1 level studied in rat. It counts as ADME, organism-based, Albino HAN:WIST, Feces. The note with it: in vivo, 240 h.
A short description of data set [23]: % of radioactivity recovered as M12 in faeces following oral administration of [14C] aliskiren hemifumarate at 100 mg.Kg-1 level in rat. In kind it is ADME, organism-based, Albino HAN:WIST, Feces. The conditions noted are these: in vivo.
A short description of data set [24]: % aliskiren hemifumarate recovered as M12 in faeces following single oral dose of 300 mg [14C]SPP100 studied in healthy men. In kind it is ADME, organism-based, Feces. The note with it: human, in vivo, at 300 mg.
The nature of data set [25]: % aliskiren recovered as M6 from M4 in bile following single intravenous administration of 10 mg.Kg-1 [14C] aliskiren hemifumarate in male rat. The note with it: in vivo. It counts as ADME, organism-based, HAN:WIST(SPF).
Data set [26] is described as follows: % aliskiren recovered as M6 from M4 of receiver rat following duodenal infusion of radioactivity through bile from donor rat treated with single intravenous administration of 10 mg.Kg-1 [14C] aliskiren hemifumarate. In kind it is ADME, organism-based, HAN:WIST(SPF). The conditions noted are these: in vivo.
Data set [27] is described as follows: % aliskiren recovered as metabolite M6 in urine following 10 day repeated oral administration of [14C] aliskiren hemifumarate at 100 mg.Kg-1 level studied in rat. In kind it is ADME, organism-based, Albino HAN:WIST. The note with it: in vivo, 240 h.
Data set [28] can be described thus: % aliskiren recovered as metabolite M6 in faeces following 10 day repeated oral administration of [14C] aliskiren hemifumarate at 100 mg.Kg-1 level studied in rat. It counts as ADME, organism-based, Albino HAN:WIST, Feces. The note with it: in vivo, 240 h.
Data set [29] can be described thus: % of radioactivity recovered as M6 from M4 in faeces following oral administration of [14C] aliskiren hemifumarate at 100 mg.Kg-1 level in rat. The conditions noted are these: in vivo. It counts as ADME, organism-based, Albino HAN:WIST, Feces.
Data set [30] is described as follows: % aliskiren hemifumarate recovered as M6 from M4 in urine and faeces following single oral dose of 300 mg [14C]SPP100 studied in healthy men. In kind it is ADME, organism-based, Urine/Feces. The conditions noted are these: human, in vivo, at 300 mg.
A short description of data set [31]: % of radioactivity recovered as M6 from M4 in plasma following intravenous administration of [14C] aliskiren hemifumarate at 10 mg.Kg-1 level in rat. The conditions noted are these: in vivo. It counts as ADME, organism-based, Albino HAN:WIST.
Data set [32] in a line: % aliskiren recovered as M6 from M4 in hydrolysed following single intravenous administration of 10 mg.Kg-1 [14C] aliskiren hemifumarate in male rat. The note with it: in vivo. In kind it is ADME, organism-based, HAN:WIST(SPF), Bile.
The nature of data set [33]: % aliskiren recovered as metabolite M6 in plasma following 10 day repeated oral administration of [14C] aliskiren hemifumarate at 100 mg.Kg-1 level studied in rat. It counts as ADME, organism-based, Albino HAN:WIST. The conditions noted are these: in vivo, 240 h.
The nature of data set [34]: % of radioactivity recovered as M6 from M4 in plasma following oral administration of [14C] aliskiren hemifumarate at 100 mg.Kg-1 level in rat. The conditions noted are these: in vivo. In kind it is ADME, organism-based, Albino HAN:WIST.
Data set [35] is described as follows: % aliskiren recovered as M6 from M4 in urine following single intravenous administration of 10 mg.Kg-1 [14C] aliskiren hemifumarate in male rat. In kind it is ADME, organism-based, HAN:WIST(SPF). The note with it: in vivo.
A short description of data set [36]: % of radioactivity recovered as M6 from M4 in urine following intravenous administration of [14C] aliskiren hemifumarate at 10 mg.Kg-1 level in rat. It counts as ADME, organism-based, Albino HAN:WIST. The note with it: in vivo.
Data set [37] in a line: % aliskiren hemifumarate recovered as M6 from M4 in faeces following single oral dose of 300 mg [14C]SPP100 studied in healthy men. It counts as ADME, organism-based, Feces. The conditions noted are these: human, in vivo.
Data set [38] is described as follows: % of radioactivity recovered as M6 from M4 in faeces following intravenous administration of [14C] aliskiren hemifumarate at 10 mg.Kg-1 level in rat. It counts as ADME, organism-based, Albino HAN:WIST, Feces. The note with it: in vivo.
Data set [39] in a line: % aliskiren hemifumarate recovered as M6 from M4 in urine following single oral dose of 300 mg [14C]SPP100 studied in healthy men. In kind it is ADME, organism-based. The note with it: human, in vivo, at 300 mg.
The nature of data set [40]: % of radioactivity recovered as M6 from M4 in urine following oral administration of [14C] aliskiren hemifumarate at 100 mg.Kg-1 level in rat. In kind it is ADME, organism-based, Albino HAN:WIST. The note with it: in vivo.

These results are taken from ChEMBL document CHEMBL3508693 (2016).

For the compound `COCCCOc1cc(C[C@@H](C[C@H](N)[C@@H]2C[C@H](C(C)C)C(=O)O2)C(C)C)ccc1OC`, the Compound recovery result in data set [1] is “OUTCOME = Not detected or not investigated”; in data set [2], “OUTCOME = Observed, VALUE = Minor amounts”; in [3] it was “OUTCOME = Not detected”; in data set [4], “OUTCOME = Not detected or not investigated”; in data set [5] it was “OUTCOME = Not detected or not investigated”; in data set [6], “OUTCOME = Not detected or not investigated”. Also, the Compound recovery result in data set [7] is on record as “OUTCOME = Non-radiolabeled metabolite was observed by LC-MS”; in data set [8] it was “OUTCOME = Not detected or not investigated”; in [9] it was “OUTCOME = Not detected”; in data set [10], “OUTCOME = Observed, VALUE = Minor amounts”; in data set [11], “OUTCOME = Not detected”; in data set [12] it was “OUTCOME = Observed, VALUE = Minor amounts”.
As to `COCCCOc1cc(C[C@@H](C[C@H](NC(C)=O)[C@@H](O)C[C@H](C(=O)NCC(C)(C)C(N)=O)C(C)C)C(C)C)ccc1OC`, the Compound recovery entry was “OUTCOME = Not detected or not investigated” in data set [13]; “OUTCOME = Not detected or not investigated” in data set [14]; less than 1% in data set [15]; “OUTCOME = Not detected or not investigated” in [16]; “OUTCOME = Not detected” in data set [17]; “OUTCOME = Not detected” in data set [18]. Besides, the Compound recovery entry is “OUTCOME = Not detected or not investigated” in data set [19]; “OUTCOME = Not detected or not investigated” in data set [20]; “OUTCOME = Not detected” in data set [21]; “OUTCOME = Observed, VALUE = Measurable quantities” in [22]; “<= 2%” in data set [23]; less than 1% in [24].
On to `COc1ccc(C[C@@H](C[C@H](N)[C@@H](O)C[C@H](C(=O)NCC(C)(C)C(N)=O)C(C)C)C(C)C)cc1O[C@@H]1O[C@H](CO)[C@@H](O)[C@H](O)[C@H]1O`, for which the Compound recovery is reported as 5% in data set [25]; 8.9% in [26]; “OUTCOME = Observed, VALUE = Minor amounts” in [27]; “OUTCOME = Observed, VALUE = Minor amounts” in [28]; “OUTCOME = Not detected or not investigated” in data set [29]; less than 0.1% in data set [30]. For the same compound, the Compound recovery result in data set [31] is “<= 2%”; in data set [32] it was “OUTCOME = Not detected”; in data set [33], “OUTCOME = Observed, VALUE = Minor amounts”; in data set [34], greater than 2%; in data set [35], 3.2%; in data set [36], “OUTCOME = Not detected or not investigated”. For the same compound, the Compound recovery entry in [37] is on record as “OUTCOME = Not detected”; in [38], “OUTCOME = Not detected or not investigated”; in [39], less than 0.1%; in [40], “<= 2%”.
